Measured values taken from publication PMC10382589, “In vitro and in vivo antiplasmodial evaluation of sugar-modified nucleoside analogues” (Scientific Reports, 2023).
“Also recorded” adds a separate entry of the source. Read-outs that look alike come from different tables or passages of the source.

Key:
[1] = tested on: Pf3D7 chloroquine-sensitive strain; assay: SYBR green I based fluorescence growth inhibition assay, Pf3D7; assay type: cell-based, Plasmodium falciparum; details: for inhibition at 1 µM / IC50: Plasmodium falciparum; for inhibition at 1 µM: asynchronous culture, one intraerythrocytic cycle (Fig. S1), read-out: inhibition against Pf3D7 at 1 µM; for growth inhibition against Pf3D7 (in words): screen at 1 µM and 10 µM, vs untreated control (Fig. S1); for IC50: read-out: IC50 (µM) against Pf3D7
Protocol: Growth of one intraerythrocytic cycle of Pf was monitored after treated with compounds whereas untreated parasites were considered as control.
(§1) The percent growth inhibition of the parasites was evaluated by SYBR Green assay.
(§2) Pf3D7 and PfRKL-9 were cultured by following procedure reported by Trager and Jensen[33]. […] In order to examine the morphological changes in the parasite, a blood film must be prepared. A thin blood film was air-dried, fixed with methanol, and allowed to dry before staining. […] Light microscopy analysis was carried out to evaluate the inhibitory effect of compounds at different concentrations against Pf3D7 and PfRKL-9.
SYBR green I based fluorescence assay was performed to measure the growth inhibition effect of the 26 compounds and further dose dependent assay against Pf3D7, and PfRKL-9 (Indian field strain, source- NIMR, New Delhi, India) was carried out at different concentrations. […] Parasitized erythrocytes were treated with different concentrations of compounds ranging from 1 µM to 10 µM, whereas DMSO worked as a control. Triplicate wells of parasitized erythrocytes treated with compounds were seeded in 96 well microtiter plate following incubation at 37 °C for one cycle of parasite growth. […] Growth inhibition (%) was calculated as follows: % Inhibition = [1 − % Parasitemia (Treatment)/% Parasitemia (Control)] *100. Data were expressed as mean ± SD.

[2] = tested on: chloroquine resistant strain PfRKL-9; assay: SYBR green I based fluorescence growth inhibition assay, PfRKL-9; assay type: cell-based; details: Plasmodium falciparum, synchronized late trophozoite parasites, triplicate, mean ± SD, read-out: IC50 (µM) against PfRKL-9
Protocol: as §1, §2
SYBR green I based fluorescence assay was performed to measure the growth inhibition effect of the 26 compounds and further dose dependent assay against Pf3D7, and PfRKL-9 (Indian field strain, source- NIMR, New Delhi, India) was carried out at different concentrations. In brief, Pf3D7 and PfRKL-9 parasitized erythrocytes (trophozoite stage with 1% parasitemia) were diluted with noninfected erythrocytes at a constant 2% hematocrit in culture medium. Parasitized erythrocytes were treated with different concentrations of compounds ranging from 1 µM to 10 µM, whereas DMSO worked as a control. Triplicate wells of parasitized erythrocytes treated with compounds were seeded in 96 well microtiter plate following incubation at 37 °C for one cycle of parasite growth. […] Growth inhibition (%) was calculated as follows: % Inhibition = [1 − % Parasitemia (Treatment)/% Parasitemia (Control)] *100. Data were expressed as mean ± SD.

human RBCs = assay: Hemolytic activity on human RBCs; assay type: cell-based; details: 0.5-20 µM, 10% (v/v) RBC suspension, 1 h, absorbance at 415 nm
Protocol: Effect of compounds on human RBCs was checked with the help of spectrophotometry by measuring the lysis of human red blood cells (hRBCs). Compounds were tested at 0.5, 1, 5, 10 and 20 μM concentrations with 10% (v/v) RBCs suspension for 1 h and observed the percentage of RBCs lysis by compounds 7, 16, 17, 18 and 1.
Human RBCs were from Rotary Blood Bank, Tughlakabad Institutional Area, New Delhi, India. Effect of compounds on RBCs was checked by hemolytic assay. In brief, RBCs suspension with 10% (v/v) washed with 1 × Phosphate-buffered saline (PBS) (pH 7.4) and again resuspended in 1 × PBS. RBCs suspension was incubated with compounds 7, 16, 17, 18 and 1 at different concentrations (0.5, 1, 5, 10 and 20 μM) for 1 h at 37 °C. Samples were centrifuged and supernatant was taken for absorbance at 415 nm. Triton X-100 with 1% (v/v) was used as a positive control. Experiment was done in triplicate.

[3] = tested on: embryonic kidney cell lines, HEK-293; details: human, 48 h
Protocol: Cytotoxicity against human embryonic kidney cell line (ATCC) was determined using MTT dye[35]. In order to measuring the cytotoxicity of the compounds we used MTT dye to detect live/dead cells. […] cells were stored at 37 °C, 5% CO2 in […] sterile culture flasks (Corning) in complete Dulbecco's Modified Eagle Medium (DMEM) culture medium (a) supplemented with 5% Fetal Bovine Serum (FBS), gentamicin ([…]), with changing the medium thrice a week. The monolayers were washed, counted, diluted in complete medium, distributed in 96-well microtiter plates (5000 cells/well), followed by incubation for another 24 h at 37 °C. The test compounds and DMSO were added in triplicate. After a 48 h incubation at 37 °C, the supernatant was removed and 100 µL of MTT solution in complete DMEM was added to each well, followed by 2 h incubation at 37 °C. The culture plates were read in a spectrophotometer (Tecan infinite M200, nanoquant, UK) with a 490 nm filter, and the cytotoxic concentrations were determined based on a dose response curve.

[4] = tested on: Mitochondrial membrane potential of the malaria parasites; assay: JC-1 mitochondrial membrane potential assay; assay type: cell-based, Plasmodium falciparum; details: parasites treated with IC50 concentration for 3 h; untreated control 7.04 ± 1.30
Excerpt: Mitochondrial membrane potential is a marker of mitochondria’s functional status. Modification in mitochondrial membrane potential leading to mitochondrial dysfunction triggers cell death[25],[26]. Mitochondrial dysfunction was detected by using membrane permeant JC-1 dye. JC-1 is a cationic probe, due to electronegative environment inside the functionally active mitochondria with high Δψm, it aggregates in energised mitochondria and gives red color fluorescence at 590 nm, but in case of low Δψm (depolarized state), JC-1 remain in monomeric form and gives green color fluorescence at […]. Decreased ratio of red/green fluorescence intensity of compound treated sample as compared to untreated control indicates depolarized mitochondrial membrane[27],[28]. The damage to the parasite's mitochondria after treatment with compounds 7, 16, 17, 18 and 1 was measured according to the method reported previously. Because of lipophilic nature of the JC-1, it is cell permeable and emits a green signal (525 nm) in the cytoplasm, but the high transmembrane potential of functional mitochondria causes it to aggregate and emit a red signal (590 nm). […]. Mitochondrial membrane potential of the malaria parasites was determined by using MitoProbe™ JC-1 assay as described previously. In brief, trophozoite stage parasites (10–12% parasitemia) were treated with IC50 concentration of compounds 7, 16, 17, 18 and 1 for 3 h at 37 °C in the CO2 incubator. Samples were washed with 1 × PBS by centrifugation at 500 × g for 2 min at RT. Freshly prepared JC-1 dye was added to each sample with working concentration of 5 µg/mL. Incubation was done for 30 min at 37 °C in a CO2 incubator. Cells were washed twice with 1 × PBS. Spectrofluorometer was used to observe mitochondrial membrane potential by measuring fluoroscence intensities from the parasite lysate at wavelength of excitation (520 nm) and emission (590 nm) respectively. In vivo cell imaging was done with the help of Olympus fluoview 3000 confocal microscopy. Live cell imaging was observed under a 100X objective (oil immersion) and band pass filter at 355–460 nm. Experiments were repeated thrice and only representative figures are shown (Fig. 6).

[5] = chloroquine-sensitive strain, synchronized late trophozoite parasites, SYBR Green, triplicate, mean ± SD

SMILES	inhibition at 1 µM [1] [%]	growth inhibition against Pf3D7 (in words) [1]	other results
CC(C)(C)[Si](C)(C)OC[C@H]1O[C@@H](n2ccc(=O)[nH]c2=O)[C@H](O[Si](C)(C)C(C)(C)C)[C@H]1CSCc1ccc2ccccc2c1 [Compound 11, 1-[3’-Deoxy-3’-C-(2-naphtyl)methylsulfanylmethyl-2’,5’-di-O-(tert-butyldimethylsilyl)-β-D-xylofuranosyl]-uracil]	5 to 25		
CC(=O)OC[C@H]1O[C@@H](SC[C@@H]2O[C@@H](n3cnc4c(N)ncnc43)[C@H](O)[C@@H]2O)[C@H](OC(C)=O)[C@@H](OC(C)=O)[C@@H]1OC(C)=O [Compound 9, 1-[5’-S-(2,3,4,6-Tetra-O-acetyl-β-D-glucopyranosyl)-5’-thio-α-L-lyxofuranosyl]-adenine]		significant decrease in growth inhibitiory effect	
COc1ccc(C(OC[C@@H]2CN(C[C@H]3O[C@@H](n4cc(C)c(=O)[nH]c4=O)C[C@@H]3O)C[C@H](n3cc(C)c(=O)[nH]c3=O)O2)(c2ccccc2)c2ccc(OC)cc2)cc1 [Compound 3]		remarkable actvity; also recorded: good/excellent inhibitory effect	IC50 [2]: 4.5 ± 2.5 µM; lysis of human RBCs (in words) (human RBCs): showed cytotoxicity towards human RBCs; also recorded: showed toxicity; IC50 [1, 5]: 1.19 ± 1.1 µM
CCCCCCCCCCSC[C@@H]1[C@@H](O[Si](C)(C)C(C)(C)C)[C@H](n2cc(C)c(=O)[nH]c2=O)O[C@@H]1CO[Si](C)(C)C(C)(C)C [Compound 19]	5 to 25		
CC(=O)OC[C@H]1O[C@@H](SC[C@@H]2[C@@H](O[Si](C)(C)C(C)(C)C)[C@H](n3ccc(=O)[nH]c3=O)O[C@@H]2CO[Si](C)(C)C(C)(C)C)[C@H](OC(C)=O)[C@@H](OC(C)=O)[C@H]1OC(C)=O [Compound 16, 1-[3’-Deoxy-3’-C-(-2,3,4,6-tetra-O-acetyl-β-D-galactopyranosyl-sulfanylmethyl)-2’,5’-di-O-(tert-butyldimethylsilyl)-β-D-xylofuranosyl]-uracil]		significant growth inhibition in a dose dependent manner	IC50 [2]: 9.55 ± 1.7 µM; lysis of human RBCs (in words) (human RBCs): no significant lysis; IC50 [1, 5]: 1.78 ± 1.3 µM; Cell survival (%) at 500 µM [3]: 52%; JC-1 red/green ratio [4]: 4.98 ± 1.77
CCN(CC)CCCC(C)Nc1ccnc2cc(Cl)ccc12 (stereo not shown) [chloroquine, reference compound]			IC50 [1]: 0.025 µM
CC1(C)O[C@@H]2[C@H](O1)[C@H](CS[C@@H]1O[C@H](CO)[C@@H](O)[C@H](O)[C@H]1O)O[C@H]2n1cnc2c(NC(c3ccccc3)(c3ccccc3)c3ccccc3)ncnc21 [Compound 8, 1-[2’,3’-O-Isopropylidene-5’-S-(β-D-glucopyranosyl)-5’-thio-α-L-lyxofuranosyl]-N-trityl-adenine]		did not significantly affect the antimalarial activity	
Nc1ncnc2c1ncn2[C@@H]1O[C@H](CN2C[C@@H](CO)O[C@@H](n3cnc4c(=O)[nH]cnc43)C2)[C@@H](O)[C@H]1O [Compound 5]		remarkable actvity	IC50 [2]: 6.23 ± 1.5 µM; lysis of human RBCs (in words) (human RBCs): showed cytotoxicity towards human RBCs; also recorded: showed toxicity; IC50 [1, 5]: 1.34 ± 2.1 µM
CCCCSC[C@H]1[C@@H]2O[Si](C(C)C)(C(C)C)O[Si](C(C)C)(C(C)C)OC[C@H]2O[C@H]1n1ccc(=O)[nH]c1=O [Compound 20, 2’-Deoxy-2’-C-butylsulfanylmethyl-3’,5’-O-(1,1,3,3-tetraisopropyldisiloxane-1,3-diyl)-β-D-arabinofuranosyl-uracil]		good/excellent inhibitory effect	
CCCSC[C@@H]1[C@@H](O[Si](C)(C)C(C)(C)C)[C@H](n2ccc(=O)[nH]c2=O)O[C@@H]1CO[Si](C)(C)C(C)(C)C [Compound 10]	5 to 25		
Cc1cn([C@@H]2O[C@H](CN3C[C@@H](CN4C[C@@H](COC(c5ccccc5)(c5ccccc5)c5ccccc5)O[C@@H](n5cc(C)c(=O)[nH]c5=O)C4)O[C@@H](n4ccc(=O)[nH]c4=O)C3)[C@H]3OC(C)(C)O[C@H]32)c(=O)[nH]c1=O [Compound 4]		good/excellent inhibitory effect	
COC(=O)[C@H](CSC[C@@H]1[C@@H](O[Si](C)(C)C(C)(C)C)[C@H](n2ccc(=O)[nH]c2=O)O[C@@H]1CO[Si](C)(C)C(C)(C)C)NC(=O)OCC1c2ccccc2-c2ccccc21 [Compound 12, 1-[3’-Deoxy-3’-C-(N-Fmoc-cysteinemethyl ester)thiylmethyl-2’,5’-di-O-(tert-butyldimethylsilyl)-β-D-xylofuranosyl]-uracil]		good/excellent inhibitory effect	
CC(=O)OC[C@H]1O[C@@H](SC[C@@H]2[C@@H](O[Si](C)(C)C(C)(C)C)[C@H](n3ccc(=O)[nH]c3=O)O[C@@H]2CO[Si](C)(C)C(C)(C)C)[C@@H](OC(C)=O)[C@@H](OC(C)=O)[C@@H]1OC(C)=O [Compound 15, 1-[3’-Deoxy-3’-C-(-2,3,4,6-tetra-O-acetyl-β-D-mannopyranosyl-sulfanylmethyl)-2’,5’-di-O-(tert-butyldimethylsilyl)-β-D-xylofuranosyl]-uracil]	~50	more moderate growth inhibitory effect	
